Results reported in patent US6362369B1, “Phthalic acid diamide derivatives fluorine-containing aniline compounds as starting material, agricultural and horticultural insecticides, and a method for application of the insecticides” (Nihon Nohyaku Co., Ltd., priority 1997, dated 2002).

Key:
Type in all cases: in vivo
[1] = tested on: rice leafroller (Cnaphalocrocis medinalis); experiment: Insecticidal effect on rice leafroller (Test Example 3); conditions: 500 ppm, 25° C., humidity 70%; for Insecticidal effect, Test Example 3: rice lamina immersed; for Insecticidal effect, Test Example 3 / Insecticidal effect on rice leafroller (Test Example 3), judged grade: four days after inoculation; for Insecticidal effect on rice leafroller (Test Example 3), judged grade / Insecticidal effect (Test Example 3), judged from mortality: rice lamina dip; for Insecticidal effect on rice leafroller (Test Example 3), judged grade: third-instar larvae; for Insecticidal effect (Test Example 3), judged from mortality: 4 days after inoculation
Procedure, shortened: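 Groups of 10 third-instar larvae, in triplicate, are placed on air-dried lamina resting on wet filter paper. Incubation runs four days at 25° C with 70% humidity before survivors and dead are tallied.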

[2] = tested on: common cutworm (Spodoptera Litura); experiment: Insecticidal effect on common cutworm (Test Example 2); conditions: 500 ppm, 25° C.; for Insecticidal effect, Test Example 2: cabbage leaf immersed; for Insecticidal effect, Test Example 2 / Insecticidal effect on common cutworm (Test Example 2), judged grade: eight days after inoculation; for Insecticidal effect on common cutworm (Test Example 2), judged grade / Insecticidal effect (Test Example 2), judged from mortality: cabbage leaf dip; for Insecticidal effect on common cutworm (Test Example 2), judged grade: second-instar larvae; for Insecticidal effect (Test Example 2), judged from mortality: 8 days after inoculation
Procedure, shortened: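 Mortality was scored 8 days post-inoculation, using three groups of 10 second-instar larvae kept at 25 °C in closed 9 cm dishes on air-dried treated material. The insecticidal effect was graded from calculated mortality by a set criterion.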

[3] = tested on: diamondback moth (Plutella xylostella); experiment: Insecticidal effect on diamondback moth (Test Example 1); conditions: for Insecticidal effect, Test Example 1 / Insecticidal effect (Test Example 1), judged from mortality: diamondback moth; for Insecticidal effect on diamondback moth (Test Example 1), judged grade: mortality judged according to the criterion shown in Test Example 1; for Insecticidal effect (Test Example 1), judged from mortality: judged by the criterion of Test Example 1
Procedure, shortened: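 Chinese cabbage seedlings carrying eggs laid by released adult moths were immersed in treatment, air-dried and held at 25° C. Hatched insects were counted six days after immersion, and mortality was calculated and scored against a fixed criterion. Three replicate groups of 10 insects were used.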

[4] = rice leafroller third-instar larvae
[5] = common cutworm second-instar larvae
[6] = mortality judged by criterion of Test Example 1
[7] = third-instar larvae of rice leafroller
[8] = second-instar larvae of common cutworm
[9] = judged by the mortality criterion of Test Example 1

Row | Structure (SMILES) | Insecticidal effect, Test Example 3 [1, 4] | Insecticidal effect, Test Example 2 [2, 5] | Insecticidal effect, Test Example 1 [3, 6] | Insecticidal effect, Test Example 3 [1, 7] | Insecticidal effect, Test Example 2 [2, 8] | Insecticidal effect, Test Example 1 [3, 9] | further results
1 | Cc1cc(OC(F)(F)F)ccc1NC(=O)c1ccc(F)c(Cl)c1C(=O)NC(C)C [compound 1227] | A (100) | A (100) | A (100) |  |  |  | 
2 | CC(C)(C)NC(=O)c1c(Cl)cccc1C(=O)Nc1ccc(SC(F)(F)Br)cc1 [compound 1114] | A (100) | A (100) | A (100) |  |  |  | 
3 | CC(C)NC(=O)c1cccc(F)c1C(=O)Nc1ccc(C(F)(F)F)cc1Cl [compound 550] |  |  |  |  |  |  | Insecticidal effect on rice leafroller (Test Example 3), judged grade [1]: A (100); Insecticidal effect on common cutworm (Test Example 2), judged grade [2]: C (89-80); Insecticidal effect on diamondback moth (Test Example 1), judged grade [3]: A (100)
4 | CCC(C)(C)NC(=O)c1c(I)cccc1C(=O)Nc1ccc(OC(F)(F)F)cc1C [compound 1566] |  |  |  |  |  |  | Insecticidal effect (Test Example 3), judged from mortality [1, 7]: A (100); Insecticidal effect (Test Example 2), judged from mortality [2, 8]: A (100); Insecticidal effect (Test Example 1), judged from mortality [3]: A (100)
5 | Cc1ccc(Cl)cc1NC(=O)c1cccc([N+](=O)[O-])c1C(=O)NC1CC1 [compound 851] |  |  |  |  |  |  | Insecticidal effect on rice leafroller (Test Example 3), judged grade [1]: A (100); Insecticidal effect on common cutworm (Test Example 2), judged grade [2]: D (79-50); Insecticidal effect on diamondback moth (Test Example 1), judged grade [3]: A (100)
6 | Cc1c(Cl)cccc1NC(=O)c1ccccc1C(=O)NC(C)C [compound 49] |  |  |  | A (100) | A (100) | A (100) | 
7 | Cc1cc(C(F)(F)C(F)(F)F)ccc1NC(=O)c1cccc(I)c1C(=O)N(C(C)C)C(C)C [compound 1081] | A (100) | A (100) | A (100) |  |  |  | 
8 | CC(C)(C)NC(=O)c1c(I)cccc1C(=O)Nc1ccc(C(F)(F)C(F)(F)F)cc1F [compound 1427] | A (100) | A (100) | A (100) |  |  |  | 
9 | CCC(C)NC(=O)c1c(I)cccc1C(=O)Nc1ccc(OC(F)F)cc1C (stereo not drawn) [compound 1454] |  |  |  |  |  |  | Insecticidal effect (Test Example 3), judged from mortality [1, 7]: A (100); Insecticidal effect (Test Example 2), judged from mortality [2, 8]: A (100); Insecticidal effect (Test Example 1), judged from mortality [3]: A (100)
10 | CC(C)NC(=O)c1cccc(I)c1C(=O)Nc1ccc(OC(F)(F)C(F)OC(F)(F)C(F)(F)C(F)(F)F)cc1 (stereo not drawn) [compound 419] |  |  |  | A (100) | A (100) | A (100) | 
11 | CC(C)NC(=O)c1c(I)cccc1C(=O)Nc1ccc(C(F)(C(F)(F)F)C(F)(F)F)cc1 [compound 351] |  |  |  | A (100) | A (100) | A (100) | 
12 | COc1ccc(NC(=O)c2cccc(Br)c2C(=O)NC(C)C)c(C)c1C [compound 285] |  |  |  | A (100) | D (79-50) | A (100) | 
13 | Cc1cc(C(F)(F)C(F)(F)C(F)(F)F)ccc1NC(=O)c1cccc(I)c1C(=O)NC(C)C [compound 373] |  |  |  | A (100) | A (100) | A (100) | 
14 | CC(C)NC(=O)c1c(I)cccc1C(=O)Nc1ccc2c(c1)OC(F)(F)C(F)(F)O2 [compound 1003] | A (100) | A (100) | A (100) |  |  |  | 
15 | Cc1cc(Oc2cccc(C(F)(F)F)c2)ccc1NC(=O)c1cccc(F)c1C(=O)NC(C)C [compound 519] |  |  |  |  |  |  | Insecticidal effect on rice leafroller (Test Example 3), judged grade [1]: A (100); Insecticidal effect on common cutworm (Test Example 2), judged grade [2]: A (100); Insecticidal effect on diamondback moth (Test Example 1), judged grade [3]: A (100)
16 | CCc1cc(C(F)(F)C(F)(F)F)ccc1NC(=O)c1cccc(Cl)c1C(=O)NC(C)(C)C [compound 1497] |  |  |  |  |  |  | Insecticidal effect (Test Example 3), judged from mortality [1, 7]: A (100); Insecticidal effect (Test Example 2), judged from mortality [2, 8]: A (100); Insecticidal effect (Test Example 1), judged from mortality [3]: A (100)
17 | CCCN(CCC)C(=O)c1c(I)cccc1C(=O)Nc1ccc(OC(F)(F)F)cc1C [compound 1156] | A (100) | A (100) | A (100) |  |  |  | 
18 | CCC(CO)NC(=O)c1ccccc1C(=O)Nc1ccc(C(F)(F)C(F)(F)F)cc1C (stereo not drawn) [compound 1299] | A (100) | A (100) | A (100) |  |  |  | 
19 | CC(C)NC(=O)c1c(I)cccc1C(=O)Nc1ccc(I)cc1 [compound 347] |  |  |  | C (89-80) | B (99-90) | A (100) | 

Row | Structure (SMILES) | Insecticidal effect, Test Example 3 [1, 4] | Insecticidal effect, Test Example 2 [2, 5] | Insecticidal effect, Test Example 1 [3, 6] | Insecticidal effect, Test Example 3 [1, 7] | Insecticidal effect, Test Example 2 [2, 8] | Insecticidal effect, Test Example 1 [3, 9] | further results
20 | CC(C)NC(=O)c1c(Cl)cccc1C(=O)Nc1ccc2oc(C(F)(F)C(F)(F)C(F)(F)F)nc2c1 [compound 1638] |  |  |  |  |  |  | Insecticidal effect (Test Example 3), judged from mortality [1, 7]: A (100); Insecticidal effect (Test Example 2), judged from mortality [2, 8]: A (100); Insecticidal effect (Test Example 1), judged from mortality [3]: A (100)
21 | Cc1cc(C(F)(F)C(F)(F)F)ccc1NC(=O)c1cccc(Cl)c1C(=O)NC(C)(C)c1ccccc1 [compound 1417] | A (100) | A (100) | A (100) |  |  |  | 
22 | Cc1cc(C(F)(F)C(F)(F)C(F)(F)F)ccc1NC(=O)c1cc(F)ccc1C(=O)NC(C)C [compound 533] |  |  |  |  |  |  | Insecticidal effect on rice leafroller (Test Example 3), judged grade [1]: A (100); Insecticidal effect on common cutworm (Test Example 2), judged grade [2]: A (100); Insecticidal effect on diamondback moth (Test Example 1), judged grade [3]: A (100)
23 | Cc1cc(OCC(F)(F)C(F)F)ccc1NC(=O)c1cccc(I)c1C(=O)NC(C)C [compound 388] |  |  |  | B (99-90) | A (100) | A (100) | 
24 | CCN(CC)C(=O)c1c(I)cccc1C(=O)Nc1ccc(OC(F)(F)F)cc1F [compound 1190] | A (100) | A (100) | A (100) |  |  |  | 
25 | CC(C)(C)NC(=O)c1c(I)cccc1C(=O)Nc1ccc(OC(F)(F)F)cc1 [compound 940] | A (100) | A (100) | A (100) |  |  |  | 
26 | CC(C)(C)NC(=O)c1cccc(Cl)c1C(=O)Nc1ccc(C(F)(F)F)cc1 [compound 935] |  |  |  |  |  |  | Insecticidal effect on rice leafroller (Test Example 3), judged grade [1]: A (100); Insecticidal effect on common cutworm (Test Example 2), judged grade [2]: A (100); Insecticidal effect on diamondback moth (Test Example 1), judged grade [3]: A (100)
27 | CC(C)NC(=O)c1c(Cl)cccc1C(=O)Nc1ccc(C(F)(F)F)cc1Cl [compound 125] |  |  |  | A (100) | B (99-90) | A (100) | 
28 | Cc1cc(C(F)(C(F)(F)F)C(F)(F)F)ccc1NC(=O)c1cccc(I)c1C(=O)NC(C)(C)C [compound 1039] | A (100) | A (100) | A (100) |  |  |  | 
29 | Cc1cc(I)ccc1NC(=O)c1cccc(I)c1C(=O)NC(C)C [compound 367] |  |  |  | A (100) | A (100) | A (100) | 
30 | Cc1cc(Oc2c(F)c(F)c(F)c(F)c2F)ccc1NC(=O)c1cccc(Cl)c1C(=O)NC(C)C [compound 157] |  |  |  | A (100) | A (100) | A (100) | 
31 | CC(C)NC(=O)c1c(C(=O)Nc2ccc3c(c2)OC(F)(F)C(F)O3)cccc1[N+](=O)[O-] (stereo not drawn) [compound 1162] | A (100) | A (100) | A (100) |  |  |  | 
32 | Cc1cc(C(F)(F)C(F)(F)F)ccc1NC(=O)c1cccc(Cl)c1C(=O)NCc1ccccc1Cl [compound 1309] | A (100) | A (100) | A (100) |  |  |  | 
33 | Cc1cc(SC(F)(F)C(F)(F)F)ccc1NC(=O)c1c(F)cccc1C(=O)NC(C)C [compound 906] |  |  |  |  |  |  | Insecticidal effect on rice leafroller (Test Example 3), judged grade [1]: A (100); Insecticidal effect on common cutworm (Test Example 2), judged grade [2]: D (79-50); Insecticidal effect on diamondback moth (Test Example 1), judged grade [3]: A (100)
34 | Cc1cc(C(F)(F)C(F)(F)F)ccc1NC(=O)c1ccc(Cl)cc1C(=O)NC(C)C [compound 1277] | A (100) | A (100) | A (100) |  |  |  | 
35 | CC(C)NC(=O)c1c(Cl)cccc1C(=O)Nc1ccc(SC(F)(F)F)cc1 [compound 997] | A (100) | A (100) | A (100) |  |  |  | 
36 | Cc1cc(C(F)(F)C(F)(F)F)ccc1NC(=O)c1cccc(Cl)c1C(=O)NC(C)C [compound 128] |  |  |  | A (100) | D (79-50) | A (100) | 
37 | Cc1cc(C(F)(F)C(F)(F)Br)ccc1NC(=O)c1ccccc1C(=O)NC(C)C [compound 63] |  |  |  | A (100) | B (99-90) | A (100) | 
